Experimental data taken from patent publication US20260209208A1, “PHENYL-PYRAZOLE CARBOXAMIDE COMPOUNDS” (Acrivon Therapeutics, Inc., priority 2022, published 2026).

Tests used:
[1] = target: T1, recombinant human PMYT-1 (Myt1 kinase) (Homo sapiens, UniProt Q99640); experiment: LanthaScreen Europium (Eu) Kinase Binding Assay for Myt1 kinase; conditions: TR-FRET tracer 178 displacement, GST-tagged full length PMYT-1, 60 min, room temperature; mean IC50; read-out: LANTHA Kinase Binding for PMyt1
T1 construct: full length PMYT-1 was expressed by baculovirus in insect cells using a N-terminal GST tag; purchased Invitrogen A30984; host or cells: insect cells (baculovirus)
T1 sequence (Q99640 1-499): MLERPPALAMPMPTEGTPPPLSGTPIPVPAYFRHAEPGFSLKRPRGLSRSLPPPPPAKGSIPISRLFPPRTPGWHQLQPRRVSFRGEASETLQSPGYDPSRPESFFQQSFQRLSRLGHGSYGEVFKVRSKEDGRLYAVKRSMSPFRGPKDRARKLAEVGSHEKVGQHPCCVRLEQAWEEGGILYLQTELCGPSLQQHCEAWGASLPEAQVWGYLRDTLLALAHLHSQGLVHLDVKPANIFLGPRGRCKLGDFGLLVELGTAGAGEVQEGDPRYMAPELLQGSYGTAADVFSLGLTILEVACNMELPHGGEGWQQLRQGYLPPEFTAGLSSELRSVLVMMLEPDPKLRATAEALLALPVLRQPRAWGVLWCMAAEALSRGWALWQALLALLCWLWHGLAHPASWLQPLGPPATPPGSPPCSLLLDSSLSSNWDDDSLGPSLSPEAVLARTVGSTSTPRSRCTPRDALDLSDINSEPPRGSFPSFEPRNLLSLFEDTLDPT
Text: We used a LanthaScreen Europium (Eu) Kinase Binding Assay to determine the binding of provided compounds to Myt1 kinase. The assay utilizes an Alexa Fluor 647-labeled ATP competitive kinase tracer that binds to the ATP binding site of a GST-tagged Myt1 kinase, while a europium (Eu) labeled antibody binds to the GST tag. The proximity of fluorescently labeled kinase tracer and europium (Eu) donor fluorophore antibody leads to fluorescence resonance energy transfer (FRET) to the fluorescence label (acceptor) upon excitation of the Eu (donor). Displacement of tracer from the ATP-binding site by a test compound disturbs the proximity between both labels thus lowering the FRET.
This time resolved-FRET binding assay was performed in white 384-well low volume plates (Greiner, cat #784075), at room temperature in kinase buffer A (KBA; Invitrogen cat # PV3189), consisting of 50 mM HEPES-NaOH (pH 7.5), 0.01% Brij-35, 10 mM MgCl2, and 1 mM EGTA. 5 μl of compound (diluted in reaction buffer, to 1% DMSO) were added to various wells in the plate, followed by 5 μl each of recombinant human PMYT-1 (full length PMYT-1 was expressed by baculovirus in insect cells using a N-terminal GST tag (MW: 80.8 kDa) (Invitrogen cat #A30984) and LanthaScreen Eu-anti-GST antibody (Invitrogen, cat #PV5594). After this, 5 μl of kinase tracer 178 (Invitrogen, cat #PV5593) was added to the plate and the plate was incubated for 60 minutes at room temperature. The final assay conditions in each well were: 3 nM tracer 178, 2.5 nM PMYT-1 and 1 nM Eu-labeled antibody in total assay volume of 15 μl. An Envision 2104 (Perkin-Elmer) Plate Reader with the following time-resolve fluorescence setting was used for performing LanthaScreen kinase binding assay. • Excitation 320 nm (30 nm bandpass) • Kinase Tracer Emission 665 nm (10 nm bandpass) • LanthaScreen Eu-anti-Tag Antibody Emission 615 nm (10 nm bandpass) • Dichroic Mirror Instrument dependent • Delay Time 100 μs • Integration Time 200 μs
To calculate the emission ratio, the acceptor/tracer emission ([…]) was divided by the antibody/donor emission ([…]) and the average of duplicate measurement was used for calculations. Data plotting, analysis of binding, and curve fitting was done using Excel add-in XLfit version 5.5.0.5 (IDBS, Guildford, United Kingdom).

Myt1 Kinase = target: T2, Myt1 Kinase (Homo sapiens, UniProt Q99640); experiment: AlphaLISA SureFire Ultra Human Phospho-CDK1 (Thr14) target engagement assay in DAOY cells; format: cell-based; conditions: 4 h incubation, Cdk1 phosphorylated on threonine 14, read-out: TE Myt1 Kinase (AlphaLISA)
T2 construct: endogenous in cells; host or cells: DAOY medulloblastoma cells (ATCC)
T2 sequence (Q99640 1-499): T1 sequence (Q99640 1-499)
Description: The following cellular assay was used to determine the extent to which the compounds disclosed herein inhibit phosphorylation of CDK1 at Thr 14.
(§1) DAOY medulloblastoma cell line (ATCC) was cultured in Minimum Essential Medium Eagle supplemented with 10% fetal calf serum (Sigma), 1% Penicillin-Streptomycin and 10 mM HEPES buffer (HyClone). Cell cultures were kept in a humidified incubator at 37° C. and 5% CO2. Cells were routinely tested for Mycoplasma contamination.
For target engagement assessment, quantification of Cdk1 phosphorylated on threonine 14 was detected using the AlphaLISA® SureFire® Ultra™ Human Phospho-CDK1 (Thr14) assay (Perkin Elmer). DAOY cells were seeded into tissue culture 96-well plates (VWR) to a density of 10,000 cells per well. Twenty-four hours post-seeding cells were incubated for 4 h with test compounds at concentrations ranging from 7 to 5000 nM. Cells were washed with PBS and lysed in 50 μl AlphaLISA® lysis buffer before freezing at −80° C. Ten μl of the lysate was transferred to 384 well plates and incubated with AlphaLISA® donor and acceptor beads according to the manufacturer's instructions. Dose response curves and EC50 values were calculated and visualized using GraphPad Prism version 9.

DAOY cells = experiment: Cell Titer Glo viability assay; format: cell-based; conditions: Homo sapiens, 144 hours, Cell Titer Glo 2.0
Description: as §1
DAOY cells were seeded at a density of 250 cells per well in tissue culture 384 well plates (Corning Costar). After overnight incubation, cells were incubated with test compounds at concentrations ranging from 0.17 to 10,000 nM. Viability compared to untreated control was assessed at 144 hours using Cell Titer Glo® 2.0 Viability Assay (Promega).

Row | SMILES | IC50 [1] | EC50 (Myt1 Kinase) | EC50 (DAOY cells)
1 | Cc1ccc(O)c(C)c1-n1nc(-c2ccccn2)c(C(N)=O)c1N [Compound 35] | ≤ 10 nM | ≤ 250 nM | > 1000 nM
2 | Cc1ccc(O)c(C)c1-n1nc(-c2coc3ccccc23)c(C(N)=O)c1N [Compound 82, 5-amino-3-(1-benzofuran-3-yl)-1-(3-hydroxy-2,6-xylyl)-4-pyrazolecarboxamide] | ≤ 10 nM | 500 to 1000 nM | > 1000 nM
3 | Cc1ccc(O)c(C)c1-n1nc(-c2cc(-c3ccccc3)co2)c(C(N)=O)c1N [Compound 88, 5-amino-1-(3-hydroxy-2,6-xylyl)-3-(4-phenyl-2-furyl)-4-pyrazolecarboxamide] | ≤ 10 nM | ≤ 250 nM | ≤ 500 nM
4 | C=Cc1coc(-c2nn(-c3c(C)ccc(O)c3C)c(N)c2C(N)=O)c1 [Compound 96, 5-amino-1-(3-hydroxy-2,6-xylyl)-3-(4-vinyl-2-furyl)-4-pyrazolecarboxamide] | ≤ 10 nM | ≤ 250 nM | ≤ 500 nM
5 | Cc1ccc(O)c(C)c1-n1nc(-c2cc(-c3cccnc3)co2)c(C(N)=O)c1N [Compound 94, 5-amino-1-(3-hydroxy-2,6-xylyl)-3-[4-(3-pyridyl)-2-furyl]-4-pyrazolecarboxamide] | ≤ 10 nM | ≤ 250 nM | ≤ 500 nM
6 | Cc1ccc(O)c(C)c1-n1nc(-c2ccc(Cl)o2)c(C(N)=O)c1N [Compound 80, 5-amino-3-(5-chloro-2-furyl)-1-(3-hydroxy-2,6-xylyl)-4-pyrazolecarboxamide] | ≤ 10 nM | ≤ 250 nM | > 1000 nM
7 | Cc1ccc(O)c(C)c1-n1nc(-c2ccc(Br)o2)c(C(N)=O)c1N [Compound 73, 5-amino-3-(5-bromo-2-furyl)-1-(3-hydroxy-2,6-xylyl)-4-pyrazolecarboxamide] | ≤ 10 nM | ≤ 250 nM | ≤ 500 nM
8 | Cc1ccc(O)c(C)c1-n1nc(-c2ccc(-c3ccccc3)o2)c(C(N)=O)c1N [Compound 87, 5-Amino-1-(3-hydroxy-2,6-xylyl)-3-(5-phenyl-2-furyl)-4-pyrazolecarboxamide] | ≤ 10 nM | ≤ 250 nM | ≤ 500 nM
9 | Cc1ccc(O)c(C)c1-n1nc(-c2cc3ccccc3o2)c(C(N)=O)c1N [Compound 72, 5-amino-3-(1-benzofuran-2-yl)-1-(3-hydroxy-2,6-xylyl)-4-pyrazolecarboxamide] | ≤ 10 nM | ≤ 250 nM | ≤ 500 nM
10 | Cc1ccc2[nH]ncc2c1-n1nc(-c2ccccc2)c(C(N)=O)c1N [Compound 5, 5-amino-1-(5-methyl-1H-indazol-4-yl)-3-phenyl-1H-pyrazole-4-carboxamide] | 10 to 100 nM | > 1000 nM | –
11 | Cc1cc(-c2nn(-c3c(C)ccc(O)c3C)c(N)c2C(N)=O)oc1C [Compound 89, 5-amino-3-(4,5-dimethyl-2-furyl)-1-(3-hydroxy-2,6-xylyl)-4-pyrazolecarboxamide] | ≤ 10 nM | 250 to 500 nM | –
12 | NC(=O)c1c(-c2ccco2)nn(-c2c(Cl)ccc(O)c2Cl)c1N [Compound 91, 5-amino-1-(2,6-dichloro-3-hydroxyphenyl)-3-(2-furyl)-4-pyrazolecarboxamide] | 10 to 100 nM | > 1000 nM | –
13 | Cc1ccoc1-c1nn(-c2c(C)ccc(O)c2C)c(N)c1C(N)=O [Compound 83, 5-amino-1-(3-hydroxy-2,6-xylyl)-3-(3-methyl-2-furyl)-4-pyrazolecarboxamide] | 10 to 100 nM | > 1000 nM | –

Further lines, with some results ahead:

Row | IC50 [1] | EC50 (Myt1 Kinase) | SMILES | EC50 (DAOY cells)
14 | ≤ 10 nM | ≤ 250 nM | Cc1ccc(O)c(C)c1-n1nc(-c2cccs2)c(C(N)=O)c1N [Compound 119] | 500 to 1000 nM
15 | ≤ 10 nM | ≤ 250 nM | Cc1ccc(O)c(C)c1-n1nc(-c2cc3ccccc3o2)c(C(N)=O)c1N (single isomer, unassigned) [Compound 107, 5-amino-3-(benzofuran-2-yl)-1-(3-hydroxy-2,6-dimethylphenyl)-1H-pyrazole-4-carboxamide] | ≤ 500 nM
16 | ≤ 10 nM | ≤ 250 nM | C=C(C)c1coc(-c2nn(-c3c(C)ccc(O)c3C)c(N)c2C(N)=O)c1 [Compound 97, 5-amino-1-(3-hydroxy-2,6-xylyl)-3-(4-isopropenyl-2-furyl)-4-pyrazolecarboxamide] | ≤ 500 nM
17 | ≤ 10 nM | ≤ 250 nM | COc1ccc2oc(-c3nn(-c4c(C)ccc(O)c4C)c(N)c3C(N)=O)cc2c1 [Compound 115, 5-amino-1-(3-hydroxy-2,6-dimethylphenyl)-3-(5-methoxybenzofuran-2-yl)-1H-pyrazole-4-carboxamide] | 500 to 1000 nM
18 | ≤ 10 nM | ≤ 250 nM | Cc1ccc(O)c(C)c1-n1nc(-c2cc(Br)co2)c(C(N)=O)c1N (single isomer, unassigned) [Compound 106, 5-amino-3-(4-bromofuran-2-yl)-1-(3-hydroxy-2,6-dimethylphenyl)-1H-pyrazole-4-carboxamide] | ≤ 500 nM
19 | ≤ 10 nM | ≤ 250 nM | Cc1ccc(O)c(C)c1-n1nc(-c2cc(C(C)C)co2)c(C(N)=O)c1N [Compound 102, 5-amino-1-(3-hydroxy-2,6-xylyl)-3-(4-isopropyl-2-furyl)-4-pyrazolecarboxamide] | ≤ 500 nM
20 | ≤ 10 nM | ≤ 250 nM | Cc1ccc(O)c(C)c1-n1nc(-c2ccco2)c(C(N)=O)c1N (single isomer, unassigned) [Compound 104, 5-amino-3-(furan-2-yl)-1-(3-hydroxy-2,6-dimethylphenyl)-1H-pyrazole-4-carboxamide] | 500 to 1000 nM
21 | – | 250 to 500 nM | Cc1ccc(O)c(C)c1-n1nc(-c2ccc(-c3ccccn3)o2)c(C(N)=O)c1N [Compound 100, 5-amino-1-(3-hydroxy-2,6-xylyl)-3-[5-(2-pyridyl)-2-furyl]-4-pyrazolecarboxamide] | > 1000 nM
22 | ≤ 10 nM | ≤ 250 nM | CC#Cc1coc(-c2nn(-c3c(C)ccc(O)c3C)c(N)c2C(N)=O)c1 [Compound 114, 5-amino-1-(3-hydroxy-2,6-xylyl)-3-[4-(1-propynyl)-2-furyl]-4-pyrazolecarboxamide] | 500 to 1000 nM
23 | 10 to 100 nM | 250 to 500 nM | Cc1ccc(O)c(C)c1-n1nc(-c2cc(C#CC(C)(C)O)co2)c(C(N)=O)c1N [Compound 113, 5-amino-3-[4-(3-hydroxy-3-methyl-1-butynyl)-2-furyl]-1-(3-hydroxy-2,6-xylyl)-4-pyrazolecarboxamide] | > 1000 nM
